Experimental data: patent publication US20220273562A1, “HYDROPHOBICALLY ASSOCIATING POLYMER COUNTER ION PAIR COMPLEXES” (MALVERN COSMECEUTICS LIMITED, priority 2019, published 2022)
Where a name gives a salt, the structure may show the parent alone.

Columns and labels:
[1] = Ability of polymer counter ion pair to solubilise lipid: visual clarity of polymer counter ion/PL mixtures as pH is adjusted; details: for ion pairing with SMA 1:1 leading to formation of SMA/PL macromolecular assemblies: hydrochloride salts as cationic counter ions
[2] = Stability of the mixtures after 2-4 mths at 4° C.; assay type: physicochemical; design: key to Stability* After 2-4 mths + at 4° C.: S-stable; PS—partially stable; NS—not stable
[3] = SMA 1:1 50 mg, DLPC 20 mg (2.5:1), 2 ml, amine HCl [% w/w]: isopentylamine 3 mg [0.15], isobutylamine 9 mg [0.45] (clears on standing 3 days), tyramine 5-6 mg [0.25-0.3], diphenhydramine 2.5-4 mg [0.13-0.2], phenylalanine ethyl ester 10 mg [0.5], tolazoline 5 mg [0.25], naphazoline 5 mg, start pH 7 or 8
[4] = SMA 1:1 50 mg, DLPC 20 mg, 2 ml, amine HCl: isopentylamine 3 mg, isobutylamine 9 mg, tyramine 5-6 mg, diphenhydramine 2.5-4 mg, phenylalanine ethyl ester 10 mg, tolazoline 5 mg, naphazoline 8 mg total
[5] = SMA 1:1 50 mg, DLPC 20 mg, 2 ml, phenylalanine ethyl ester 'Cleared,', tolazoline 'Remains clear overnight,', naphazoline 'Virtually clear'
[6] = SMA 1:1 50 mg, DLPC 20 mg, 2 ml, naphazoline HCl further 3 mg, 8 mg [0.4% w/w] total

## c1ccc(CC2=NCCN2)cc1 [2-Benzyl-2-imidazoline (tolazoline), 2-benzyl-2-imidazoline, reference compound]
[1]; Poly(methacrylic acid) sodium 4-6k 50 mg (preformed PMA + Bz), DLPC 10 mg (5:1), 2 ml, start pH 7-8, tolazoline HCl 22 mg [1.1% w/w], printed 'ppt & clear'
  pH for clear sample: 6, ppt &
[1]; [3]
  pH for clear sample: 7-8,
[1]; imidazoline counter ion in place of a primary amine
  collapse pK of the 1:1 SMA polymer when associating with PL: ~7
[2]; [4]
  Stability* After 2-4 mths + at 4° C.: S
[2]; [5]
  Stability, appearance in words: clear

## Nc1ccc(C(=O)O)cc1 [4-amino benzoic acid (PABA), 4-amino benzoic acid]
[1]
  ion pairing with SMA 1:1 leading to formation of SMA/PL macromolecular assemblies: failed

## CN(C)CCOC(c1ccccc1)c1ccccc1 [Diphenhydramine, diphenhydramine hydrochloride, reference compound]
[1]; SMA 1:1 50 mg, DLPC 20 mg, 2 ml, diphenhydramine HCl 2.5-4 mg [0.13-0.2% w/w]
  pH at which ppt forms: ppt 6

## CC(C)CN [Isobutylamine]
[1]; Poly(maleic acid) 50 mg, DLPC 2 mg (25:1), isobutyl amine HCl further 5 mg, 20 mg [1.0% w/w] total, printed 'No clearing.'
  pH for clear sample: No
[1]; Poly(maleic acid) 50 mg, DLPC 2 mg, isobutyl amine HCl further 5 mg, 25 mg [1.25% w/w] total, at pH 8, printed '8, No clearing.'
  pH for clear sample: 8, No
[1]; Poly(maleic acid) 50 mg, DLPC further 2, total 4 mg (12.5:1), isobutyl amine HCl 25 mg, complete clearing, fine white flecks
  pH for clear sample: 3, Complete
[1]; Poly(maleic acid) 50 mg, DLPC total 4 mg (12.5:1), isobutyl amine HCl 25 mg
  pH at which ppt forms: 4 ppt.
[1]; Poly(maleic acid) ex PolyS 50 mg, 2 ml, start pH 8, isobutyl amine HCl 15 mg [0.75% w/w], no DLPC entered in this line
  pH for clear sample: 7
[1]; Poly(methacrylic acid) sodium 4-6k 50 mg, DLPC 10 mg (5:1), 2 ml, start pH 6, isobutyl amine HCl 10 mg [0.5% w/w]
  pH at which ppt forms: 4, ppt
[1]; Poly(methacrylic acid) sodium 4-6k 50 mg, DLPC 10 mg, isobutyl amine HCl 24 mg [1.2% w/w] total
  pH for clear sample: ppt, 5
[1]; Poly(methacrylic acid) sodium 4-6k 50 mg, DLPC 10 mg, isobutyl amine HCl 36 mg [1.8% w/w] total
  pH at which slight clouding occurs: 5, slight
[1]; [3]
  pH for clear sample: 8, clears
[2]; Poly(methacrylic acid) sodium 4-6k 50 mg, DLPC 10 mg, isobutyl amine HCl 10 mg [0.5% w/w]
  Stability, appearance in words: Clear
[2]; Poly(methacrylic acid) sodium 4-6k 50 mg, DLPC 10 mg, isobutyl amine HCl 24 mg then 36 mg total, printed 'Clear overnight few white ppt particles'
  Stability, appearance in words: Clear
[2]; [4]
  Stability* After 2-4 mths + at 4° C.: S

## CC(C)CCN [Isopentylamine, Isopentyl amine]
[1]; [3]
  pH for clear sample: 7, Clear
[2]; [4]
  Stability* After 2-4 mths + at 4° C.: NS

## N[C@@H](Cc1ccc(O)c(O)c1)C(=O)O [L-dopa, reference compound]
[1]
  ion pairing with SMA 1:1 leading to formation of SMA/PL macromolecular assemblies: failed

## NC[C@H](O)c1ccc(O)c(O)c1 [L-norepinephrine, reference compound]
[1]
  ion pairing with SMA 1:1 leading to formation of SMA/PL macromolecular assemblies: failed

## c1ccc2c(CC3=NCCN3)cccc2c1 [Naphazoline, naphazoline hydrochloride, reference compound]
[1]; [3]
  pH for clear sample: 8, Clear
[1]; [6]
  pH at which sample is cloudy: Cloudy 7,
  pH for clear sample: Clear 8-9.
[1]
  ion pairing with SMA 1:1 leading to formation of SMA/PL macromolecular assemblies: can also surprisingly be used as ion pairs
[2]; [4]
  Stability* After 2-4 mths + at 4° C.: PS
[2]; [5]
  Stability, appearance in words: clear

## Cl.NCCc1ccccc1 [PEA, 2-Phenylethylamine hydrochloride]
[1]; 2% PEA added to a 2.5% solution of 1:1 SMA
  collapse pH: 8-9
[1]; SMA 1:1 40 mg, DLPC 20 mg (2:1), final vol 1.6 ml, PEA HCl 4.4 mg [0.25% w/w]
  pH for clear sample: 7, Clear
[1]; SMA 1:1 40 mg, DLPC 20 mg, final vol 1.64 ml, further 2.9 mg PEA HCl, 7.3 mg [0.45% w/w] total
  pH for clear sample: 10, Clear
[1]; SMA 1:1 50 mg, DLPC 25 mg (2:1), final vol 2 ml, PEA HCl 40 mg [2% w/w]
  pH for clear sample: 8.5 clear
[1]; SMA 2:1 50 mg, DLPC 25 mg (polymer:lipid 2:1), final vol 2 ml, PEA HCl 40 mg [2% w/w]
  pH for clear sample: 9 clear
[1]; ratio SMA(1:1):PEA 5:4
  pH over which the polymer collapses to interact with phospholipid: 8.5
[1]; ratio SMA(1:1):PEA 9:1
  pH over which the polymer collapses to interact with phospholipid: 7.0
[2]; SMA 1:1 40 mg, DLPC 20 mg, 1.6 ml, PEA HCl 4.4 mg [0.25% w/w]
  Stability* After 2-4 mths + at 4° C.: NS
[2]; SMA 1:1 50 mg, DLPC 25 mg, 2 ml, PEA HCl 40 mg [2% w/w]
  Stability* After 2-4 mths + at 4° C.: PS

## CCOC(=O)[C@@H](N)Cc1ccccc1.Cl [Phenylalanine ethyl ester, L-phenylalanine ethyl ester hydrochloride]
[1]; [3]
  pH for clear sample: 8, Clears
[2]; [4]
  Stability* After 2-4 mths + at 4° C.: PS
[2]; [5]
  Stability, appearance in words: Cleared,

## NCCc1ccc(O)cc1 [Tyramine, tyramine]
[1]
  ion pairing with SMA 1:1 leading to formation of SMA/PL macromolecular assemblies: can also surprisingly be used as ion pairs
[2]; [4]
  Stability* After 2-4 mths + at 4° C.: S

## CN(C)CCCC1c2ccccc2CCc2ccccc21 [amitryptyline hydrochloride, reference compound]
[1]
  ion pairing with SMA 1:1 leading to formation of SMA/PL macromolecular assemblies: only partially formed

## CCOC(=O)c1ccc(N)cc1 [benzocaine, reference compound]
[1]
  ion pairing with SMA 1:1 leading to formation of SMA/PL macromolecular assemblies: failed

## NCCc1ccc(O)c(O)c1 [dopamine, reference compound]
[1]
  ion pairing with SMA 1:1 leading to formation of SMA/PL macromolecular assemblies: failed

## COc1cc(C(O)CN)ccc1O (stereo not drawn) [normetanephrine]
[1]
  ion pairing with SMA 1:1 leading to formation of SMA/PL macromolecular assemblies: failed

## NCC(O)c1ccc(O)cc1 (stereo not drawn) [octopamine]
[1]
  ion pairing with SMA 1:1 leading to formation of SMA/PL macromolecular assemblies: failed
